Paper PMC5218480 (PLoS ONE, 2017)

Test system: MV-4-11 cells
Assay: Gene expression microarray analysis (Affymetrix PrimeView) and GSEA
Type: cell-based, human
Set-up: RFU PODN (11730768_x_at) / Fold change /veh PODN (11730768_x_at) / RFU LINC00158 (11744669_a_at) / Fold change /veh LINC00158 (11744669_a_at) / RFU DUSP10 (11751237_a_at) / Fold change /veh DUSP10 (11751237_a_at) / RFU ID3 (11757404_x_at) / Fold change /veh ID3 (11757404_x_at) / RFU PLEKHG5 (11737974_s_at) / Fold change /veh PLEKHG5 (11737974_s_at) / RFU LRRC4B (11730491_at) / Fold change /veh LRRC4B (11730491_at) / RFU GIMAP4 (11747438_a_at) / Fold change /veh GIMAP4 (11747438_a_at) / RFU KRT8 (11758183_x_at) / Fold change /veh KRT8 (11758183_x_at) / RFU CNN1 (11734310_a_at) / Fold change /veh CNN1 (11734310_a_at) / RFU VPS37D (11726825_at) / Fold change /veh VPS37D (11726825_at) / RFU C10orf10 (11716522_x_at) / Fold change /veh C10orf10 (11716522_x_at) / RFU KIR2DL2 /// KIR2DL4 /// KIR2DL5A /// KIR2DL5B /// KIR2DS1 /// KIR2DS2 /// KIR2DS3 /// KIR2DS4 /// KIR3DL3 /// KIR3DL3 /// KIR3DS1 (11738374_at) / Fold change /veh KIR2DL2 /// KIR2DL4 /// KIR2DL5A /// KIR2DL5B /// KIR2DS1 /// KIR2DS2 /// KIR2DS3 /// KIR2DS4 /// KIR3DL3 /// KIR3DL3 /// KIR3DS1 (11738374_at) / RFU C1QL1 (11718748_at) / Fold change /veh C1QL1 (11718748_at) / RFU TMPRSS4 (11747572_a_at) / Fold change /veh TMPRSS4 (11747572_a_at) / RFU HAMP (11756126_x_at) / Fold change /veh HAMP (11756126_x_at) / RFU RNFT2 (11725882_a_at) / Fold change /veh RNFT2 (11725882_a_at) / RFU NR4A2 (11747474_a_at) / Fold change /veh NR4A2 (11747474_a_at) / RFU ABCC12 (11746883_a_at) / Fold change /veh ABCC12 (11746883_a_at) / RFU TMEM136 (11760407_x_at) / Fold change /veh TMEM136 (11760407_x_at) / RFU CLDN22 /// WWC2 (11732394_at) / Fold change /veh CLDN22 /// WWC2 (11732394_at) / RFU HLA-DPB1 (11760878_x_at) / Fold change /veh HLA-DPB1 (11760878_x_at) / RFU SPINT1 (11716480_a_at) / Fold change /veh SPINT1 (11716480_a_at) / RFU GAP43 (11754022_s_at) / Fold change /veh GAP43 (11754022_s_at) / RFU A4GNT (11735810_at) / Fold change /veh A4GNT (11735810_at) / RFU PRB3 (11715151_x_at) / Fold change /veh PRB3 (11715151_x_at) / RFU TUBB4B (11761932_at) / Fold change /veh TUBB4B (11761932_at) / RFU CAPN14 (11732068_a_at) / Fold change /veh CAPN14 (11732068_a_at) / RFU TMCC2 (11721928_a_at) / Fold change /veh TMCC2 (11721928_a_at) / RFU IRGQ (11745062_a_at) / Fold change /veh IRGQ (11745062_a_at) / RFU FAM174B (11720279_a_at) / Fold change /veh FAM174B (11720279_a_at) / RFU TMPRSS4 (11748680_a_at) / Fold change /veh TMPRSS4 (11748680_a_at) / RFU FAM212B (11763350_a_at) / Fold change /veh FAM212B (11763350_a_at) / RFU PLEKHG5 (11743358_a_at) / Fold change /veh PLEKHG5 (11743358_a_at) / RFU ZSCAN30 (11745921_a_at) / Fold change /veh ZSCAN30 (11745921_a_at) / RFU CMKLR1 (11741424_a_at) / Fold change /veh CMKLR1 (11741424_a_at) / RFU LOC101060620 /// MAPK8IP1 (11723275_at) / Fold change /veh LOC101060620 /// MAPK8IP1 (11723275_at) / RFU SPTSSB (11747773_x_at) / Fold change /veh SPTSSB (11747773_x_at) / RFU PRSS12 (11739890_at) / Fold change /veh PRSS12 (11739890_at) / RFU BIN1 (11741810_x_at) / Fold change /veh BIN1 (11741810_x_at) / RFU WNT11 (11732464_a_at) / Fold change /veh WNT11 (11732464_a_at) / RFU C10orf10 (11716521_a_at) / Fold change /veh C10orf10 (11716521_a_at) / RFU C5orf56 (11738089_at) / Fold change /veh C5orf56 (11738089_at) / RFU CYB561 (11721691_x_at) / Fold change /veh CYB561 (11721691_x_at) / RFU ANKRD19P (11752326_a_at) / Fold change /veh ANKRD19P (11752326_a_at) / RFU OR2T12 /// OR2T33 /// OR2T8 (11738714_s_at) / Fold change /veh OR2T12 /// OR2T33 /// OR2T8 (11738714_s_at) / RFU VCAN (11748164_a_at) / Fold change /veh VCAN (11748164_a_at) / RFU JSRP1 (11732532_at) / Fold change /veh JSRP1 (11732532_at) / RFU KRTAP10-11 (11738290_x_at) / Fold change /veh KRTAP10-11 (11738290_x_at) / RFU MYO3A (11730013_a_at) / Fold change /veh MYO3A (11730013_a_at) / RFU EBF3 (11725865_a_at) / Fold change /veh EBF3 (11725865_a_at) / RFU CAMK2N1 (11719241_x_at) / Fold change /veh CAMK2N1 (11719241_x_at) / RFU C5orf56 (11738088_a_at) / Fold change /veh C5orf56 (11738088_a_at) / RFU OLFML3 (11715873_a_at) / Fold change /veh OLFML3 (11715873_a_at) / RFU LOC100653217 /// NTM (11731650_a_at) / Fold change /veh LOC100653217 /// NTM (11731650_a_at) / RFU MAPK11 (11762145_a_at) / Fold change /veh MAPK11 (11762145_a_at) / RFU FIZ1 (11724087_x_at) / Fold change /veh FIZ1 (11724087_x_at) / RFU OASL (11726364_x_at) / Fold change /veh OASL (11726364_x_at) / RFU SOX15 (11748057_x_at) / Fold change /veh SOX15 (11748057_x_at) / RFU CD79A (11719716_a_at) / Fold change /veh CD79A (11719716_a_at) / RFU HIST1H1D (11736915_at) / Fold change /veh HIST1H1D (11736915_at) / RFU CASKIN2 (11723855_a_at) / Fold change /veh CASKIN2 (11723855_a_at) / RFU LOC730098 (11760151_x_at) / Fold change /veh LOC730098 (11760151_x_at) / RFU OR4N2 (11742367_at) / Fold change /veh OR4N2 (11742367_at) / RFU PRRT2 (11749266_a_at) / Fold change /veh PRRT2 (11749266_a_at) / RFU SNX32 (11753110_a_at) / Fold change /veh SNX32 (11753110_a_at) / RFU CDHR5 (11726645_a_at) / Fold change /veh CDHR5 (11726645_a_at) / RFU RCAN1 (11760418_a_at) / Fold change /veh RCAN1 (11760418_a_at) / RFU FAM167A (11723789_a_at) / Fold change /veh FAM167A (11723789_a_at) / RFU FAM26E (11764081_at) / Fold change /veh FAM26E (11764081_at) / RFU ISYNA1 (11749810_s_at) / Fold change /veh ISYNA1 (11749810_s_at) / RFU ACY1 (11761880_at) / Fold change /veh ACY1 (11761880_at) / RFU 11764098_at / Fold change /veh 11764098_at / RFU SAMD14 (11745864_x_at) / Fold change /veh SAMD14 (11745864_x_at) / RFU NPB (11741838_a_at) / Fold change /veh NPB (11741838_a_at) / RFU TMPRSS6 (11731388_a_at) / Fold change /veh TMPRSS6 (11731388_a_at) / RFU KRTAP10-2 (11738614_at) / Fold change /veh KRTAP10-2 (11738614_at) / RFU ARHGAP8 /// PRR5-ARHGAP8 (11727945_x_at) / Fold change /veh ARHGAP8 /// PRR5-ARHGAP8 (11727945_x_at) / RFU KRTAP5-7 /// NADSYN1 (11734609_at) / Fold change /veh KRTAP5-7 /// NADSYN1 (11734609_at) / RFU RASL12 (11751679_a_at) / Fold change /veh RASL12 (11751679_a_at) / RFU CDKN2B (11736163_a_at) / Fold change /veh CDKN2B (11736163_a_at) / RFU PRF1 (11729649_at) / Fold change /veh PRF1 (11729649_at) / RFU, ZNF638 /// ZNF638-IT1 / Fold change vs veh, ZNF638 /// ZNF638-IT1 / RFU, PANK3 / Fold change vs veh, PANK3 / RFU, SH3YL1 / Fold change vs veh, SH3YL1 / RFU, ZEB2 / Fold change vs veh, ZEB2 / RFU, NRIP1 / Fold change vs veh, NRIP1 / RFU, PTTG1IP / Fold change vs veh, PTTG1IP / RFU, CAPN2 / Fold change vs veh, CAPN2 / RFU, MED14 / Fold change vs veh, MED14 / RFU, SNORA58 / Fold change vs veh, SNORA58 / RFU, C1orf63 / Fold change vs veh, C1orf63 / RFU, LRRFIP1 / Fold change vs veh, LRRFIP1 / RFU, NDUFAF7 / Fold change vs veh, NDUFAF7 / RFU, SLC12A2 / Fold change vs veh, SLC12A2 / RFU, IBTK / Fold change vs veh, IBTK / RFU, ESF1 / Fold change vs veh, ESF1 / Fold change vs veh, TMEM50B / RFU, TAOK1 / Fold change vs veh, TAOK1 / RFU, ACBD3 / Fold change vs veh, ACBD3 / RFU, TMA16 / Fold change vs veh, TMA16 / RFU, RWDD3 / Fold change vs veh, RWDD3 / RFU, BCAT1 / Fold change vs veh, BCAT1 / RFU, EDEM3 / Fold change vs veh, EDEM3 / RFU, TMEM33 / Fold change vs veh, TMEM33 / RFU, WDR75 / Fold change vs veh, WDR75 / RFU, AHCTF1 / Fold change vs veh, AHCTF1 / RFU, TFRC / Fold change vs veh, TFRC / RFU, ZDHHC17 / Fold change vs veh, ZDHHC17 / RFU, NOM1 / Fold change vs veh, NOM1 / RFU, ARL8B / Fold change vs veh, ARL8B / RFU, ZBTB11 / Fold change vs veh, ZBTB11 / RFU, TAMM41 / Fold change vs veh, TAMM41 / RFU, KIAA1704 /// LOC100996395 / Fold change vs veh, KIAA1704 /// LOC100996395 / RFU, ING1 / Fold change vs veh, ING1 / RFU, TRMT61B / Fold change vs veh, TRMT61B / RFU, FUBP3 / Fold change vs veh, FUBP3 / RFU, TP53 / Fold change vs veh, TP53 / RFU, TNKS2 / Fold change vs veh, TNKS2 / RFU, ZFP14 / Fold change vs veh, ZFP14 / RFU, ACTR2 / Fold change vs veh, ACTR2 / RFU, PPP3R1 / Fold change vs veh, PPP3R1 / RFU, PIK3R1 / Fold change vs veh, PIK3R1 / RFU, HNRNPA1 / Fold change vs veh, HNRNPA1 / RFU, RNF170 / Fold change vs veh, RNF170 / RFU, ZNF28 / Fold change vs veh, ZNF28 / RFU, RNGTT / Fold change vs veh, RNGTT / RFU, OGT / Fold change vs veh, OGT / RFU, BRD1 / Fold change vs veh, BRD1 / RFU, MARS / Fold change vs veh, MARS / RFU, ZNF655 / Fold change vs veh, ZNF655 / RFU, FAHD1 / Fold change vs veh, FAHD1 / RFU, BDP1 / Fold change vs veh, BDP1 / RFU, LRRCC1 / Fold change vs veh, LRRCC1 / RFU, ARID1A / Fold change vs veh, ARID1A / RFU, ZNF146 / Fold change vs veh, ZNF146 / RFU, ZNF330 / Fold change vs veh, ZNF330 / RFU, GPN3 / Fold change vs veh, GPN3 / RFU, C9orf123 / Fold change vs veh, C9orf123 / RFU, N4BP2L2 / Fold change vs veh, N4BP2L2 / RFU, ARFIP1 / Fold change vs veh, ARFIP1 / RFU, FAM179B / Fold change vs veh, FAM179B / RFU, BCL10 / Fold change vs veh, BCL10 / RFU, UHRF1BP1L / Fold change vs veh, UHRF1BP1L / RFU, BET1 / Fold change vs veh, BET1 / RFU, CNOT2 / Fold change vs veh, CNOT2 / RFU, ZNF268 / Fold change vs veh, ZNF268 / Fold change vs veh, ZNF507 / RFU, DGCR2 / Fold change vs veh, DGCR2 / RFU, WDSUB1 / Fold change vs veh, WDSUB1 / Fold change vs veh, HSP90B1 /// MIR3652 / RFU, ADSS / Fold change vs veh, ADSS / RFU, GK / Fold change vs veh, GK / RFU, ZNF148 / Fold change vs veh, ZNF148 / RFU, TAF9 / Fold change vs veh, TAF9 / RFU, SLC1A5 / Fold change vs veh, SLC1A5 / RFU, SLMO2 / Fold change vs veh, SLMO2 / RFU, ABCC4 / Fold change vs veh, ABCC4 / RFU, LOC101060439 /// RAP1B / Fold change vs veh, LOC101060439 /// RAP1B / RFU, RFX7 / Fold change vs veh, RFX7 / RFU, GTPBP10 / Fold change vs veh, GTPBP10 / RFU, CNEP1R1 / Fold change vs veh, CNEP1R1 / RFU, BIVM-ERCC5 /// ERCC5 / Fold change vs veh, BIVM-ERCC5 /// ERCC5 / RFU, ILF3 / Fold change vs veh, ILF3 / RFU 11762660_at / Fold change /veh 11762660_at / RFU VCAN (11757783_s_at) / Fold change /veh VCAN (11757783_s_at) / RFU DDX43 (11728927_at) / Fold change /veh DDX43 (11728927_at) / RFU KRT8 (11758188_x_at) / Fold change /veh KRT8 (11758188_x_at) / RFU NKD1 (11759106_at) / Fold change /veh NKD1 (11759106_at) / RFU SRD5A1 (11742802_a_at) / Fold change /veh SRD5A1 (11742802_a_at) / RFU TPSAB1 /// TPSB2 (11721975_s_at) / Fold change /veh TPSAB1 /// TPSB2 (11721975_s_at) / RFU GSTM3 (11746129_a_at) / Fold change /veh GSTM3 (11746129_a_at) / RFU IL23R (11737362_x_at) / Fold change /veh IL23R (11737362_x_at) / RFU TMEM51 (11727254_a_at) / Fold change /veh TMEM51 (11727254_a_at) / RFU PIWIL2 (11732686_x_at) / Fold change /veh PIWIL2 (11732686_x_at) / RFU ORM1 (11744905_x_at) / Fold change /veh ORM1 (11744905_x_at) / RFU CCDC152 (11743942_at) / Fold change /veh CCDC152 (11743942_at) / RFU ECM1 (11717891_a_at) / Fold change /veh ECM1 (11717891_a_at) / RFU IL23R (11748794_a_at) / Fold change /veh IL23R (11748794_a_at) / RFU TNFAIP8L3 (11732012_x_at) / Fold change /veh TNFAIP8L3 (11732012_x_at) / RFU MBOAT4 (11741988_at) / Fold change /veh MBOAT4 (11741988_at) / RFU 11764193_at / Fold change /veh 11764193_at / RFU TMEM53 (11763286_at) / Fold change /veh TMEM53 (11763286_at) / RFU MAGEB2 (11727129_at) / Fold change /veh MAGEB2 (11727129_at) / RFU TMEM200A (11744735_a_at) / Fold change /veh TMEM200A (11744735_a_at) / RFU CCDC152 (11751479_a_at) / Fold change /veh CCDC152 (11751479_a_at) / RFU FAM211A (11726209_a_at) / Fold change /veh FAM211A (11726209_a_at) / RFU RGS16 (11746705_a_at) / Fold change /veh RGS16 (11746705_a_at) / RFU VCAN (11755009_s_at) / Fold change /veh VCAN (11755009_s_at) / RFU RHOB (11743442_s_at) / Fold change /veh RHOB (11743442_s_at) / RFU RGS16 (11720943_a_at) / Fold change /veh RGS16 (11720943_a_at) / RFU RGS16 (11720944_at) / Fold change /veh RGS16 (11720944_at) / RFU, VPS4B / Fold change vs veh, VPS4B / RFU, CREB1 / Fold change vs veh, CREB1 / RFU, DNAJC13 / Fold change vs veh, DNAJC13 / RFU, GNAQ / Fold change vs veh, GNAQ / RFU, CDK5R1 / Fold change vs veh, CDK5R1 / RFU, ZRANB3 / Fold change vs veh, ZRANB3 / RFU, CUL4A / Fold change vs veh, CUL4A / RFU, CCNY / Fold change vs veh, CCNY / RFU, UFL1 / Fold change vs veh, UFL1 / RFU, COG3 / Fold change vs veh, COG3 / RFU, DIAPH2 / Fold change vs veh, DIAPH2 / RFU, SKA2 / Fold change vs veh, SKA2 / RFU, AFF3 / Fold change vs veh, AFF3 / RFU, LMF1 / Fold change vs veh, LMF1 / RFU, IPO11 / Fold change vs veh, IPO11 / RFU, DFFB / Fold change vs veh, DFFB / RFU, FOXP1 / Fold change vs veh, FOXP1 / RFU, CARD8 / Fold change vs veh, CARD8 / RFU, STRN3 / Fold change vs veh, STRN3 / RFU, ADK / Fold change vs veh, ADK / RFU, RASSF2 / Fold change vs veh, RASSF2 / RFU, WIPF1 / Fold change vs veh, WIPF1 / RFU, LARP1B / Fold change vs veh, LARP1B / RFU, RASA1 / Fold change vs veh, RASA1 / RFU, RB1 / Fold change vs veh, RB1 / RFU, PPFIA1 / Fold change vs veh, PPFIA1 / RFU, MAT2A / Fold change vs veh, MAT2A / RFU, CCT5 / Fold change vs veh, CCT5 / RFU, WDR92 / Fold change vs veh, WDR92 / RFU, CUX1 / Fold change vs veh, CUX1 / RFU, TTC7A / Fold change vs veh, TTC7A / RFU, TMEM135 / Fold change vs veh, TMEM135 / RFU, DEPTOR / Fold change vs veh, DEPTOR / RFU, CPM / Fold change vs veh, CPM / RFU, DNAJB6 / Fold change vs veh, DNAJB6 / RFU, CACNA2D3 / Fold change vs veh, CACNA2D3 / RFU, DTX4 / Fold change vs veh, DTX4 / RFU, TFCP2 / Fold change vs veh, TFCP2 / RFU, GMCL1 /// GMCL1P1 / Fold change vs veh, GMCL1 /// GMCL1P1 / RFU, AEBP2 / Fold change vs veh, AEBP2 / RFU, SNHG1 /// SNORD22 /// SNORD25 /// SNORD26 /// SNORD27 /// SNORD28 /// SNORD29 /// SNORD31 / Fold change vs veh, SNHG1 /// SNORD22 /// SNORD25 /// SNORD26 /// SNORD27 /// SNORD28 /// SNORD29 /// SNORD31 / Fold change (Aza/veh), C12orf56 (ProbeSet 11735607_a_at) / Fold change (ACY-1035/veh), C12orf56 (ProbeSet 11735607_a_at) / Fold change (Aza/veh), FGFR1OP (ProbeSet 11751329_s_at) / Fold change (ACY-1035/veh), FGFR1OP (ProbeSet 11751329_s_at) / Fold change (Aza/veh), VPS36 (ProbeSet 11739960_a_at) / Fold change (ACY-1035/veh), VPS36 (ProbeSet 11739960_a_at) / RFU SYPL1 (11715823_x_at) / Fold change /veh SYPL1 (11715823_x_at) / RFU IGFBP7 (11715501_s_at) / Fold change /veh IGFBP7 (11715501_s_at) / RFU REEP3 (11722064_at) / Fold change /veh REEP3 (11722064_at) / RFU IGLL1 (11728026_x_at) / Fold change /veh IGLL1 (11728026_x_at): dose or concentration left out as unconfirmed
Conditions: ProbeSet 11749645_x_at; LIST B

Nc1ccc(-c2cccs2)cc1NC(=O)c1ccc2c(c1)cc(C1CC1)n2CCN1CCOCC1 [ACY-1035]
Fold change vs veh, ZNF268: 0.87
